Test results reported in patent US20120058499A1, “Bioluminescent Detection of Protease Activity” (priority 2010, published 2012).

Columns and labels:
SENP6 = SENP6 (Homo sapiens, UniProt Q9GZR1); conditions: enzyme 200 pM; 30 minutes; FIG. 6
Experimental: (§1) The hSUMO2-amino-luciferin substrate was compared to the Z-Arg-Leu-Arg-Gly-Gly (SEQ ID NO: 1)-amino-luciferin substrate (Promega DUB-Glo™ substrate) to determine the specificity and limit of detection of the activities of six (6) different isopeptidases (USP34, USP7, USP8, SENP1, SENP2, and SENP6). For all enzymes, these two substrates were tested in parallel using the DUB-Glo™ assay system (Promega) according to the manufacturer's instructions. All enzymes were diluted into 50 mM HEPES, pH 7.5, 10 mM DTT, 0.1% Prionex® (Sigma-Aldrich). For testing Z-Arg-Leu-Arg-Gly-Gly (SEQ ID NO: 1)-amino-luciferin, final isopeptidase concentrations for all enzymes were equal to approximately 70 pM to 50 nM. For testing hSUMO2-amino-luciferin, final isopeptidase concentrations for all enzymes were equal to approximately 70 pM to 50 nM. […] The signal in relative luminescence units (RLUs) was measured at 30 minutes from reaction assembly on an EnVision™ multi-label plate reader (Perkin Elmer). The signal to background ratio (S/B) was calculated as (maximum signal/(signal in absence of enzyme) plus or minus the corrected standard deviation of triplicate measurements.

SENP2 = SENP2 (Homo sapiens, UniProt Q9HC62); conditions: enzyme 200 pM; 30 minutes; FIG. 6
Experimental: as §1

UCHL3 = biological target: T1, UCHL3 (Homo sapiens, UniProt P15374); assay: Isopeptidase cleavage of substrates (DUB-Glo luminescence / fluorescence), S/B; assay type: biochemical; conditions: for signal to background (S/B) ratio: 30 minutes
T1 sequence (P15374 1-230): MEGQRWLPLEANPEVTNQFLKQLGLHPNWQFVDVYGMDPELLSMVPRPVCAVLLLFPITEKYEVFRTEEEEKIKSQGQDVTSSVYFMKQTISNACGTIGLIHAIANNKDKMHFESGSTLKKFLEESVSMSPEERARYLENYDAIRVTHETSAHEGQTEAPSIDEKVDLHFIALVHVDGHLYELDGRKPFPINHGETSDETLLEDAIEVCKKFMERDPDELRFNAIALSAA
Experimental: (§2) The Ub-amino-luciferin substrate was compared to the Z-Arg-Leu-Arg-Gly-Gly (SEQ ID NO: 1)-amino-luciferin substrate (Promega DUB-Glo™ substrate) to determine the limit of detection of the activities of four different isopeptidases (UCHL3, USP2core, USP7, and USP8). For all enzymes, these two substrates were tested in parallel using the DUB-Glo™ assay system (Promega) according to the manufacturer's instructions. All enzymes were diluted into 50 mM HEPES, pH 7.5, 10 mM DTT, 0.1% Prionex (Sigma-Aldrich). For testing Z-Arg-Leu-Arg-Gly-Gly (SEQ ID NO: 1)-amino-luciferin, final isopeptidase concentrations were as follows: UCHL3 equal to approximately 0.35 to 50 nM; USP2core equal to approximately 10 to 500 nM, USP7 equal to approximately 0.1 to 50 nM, and USP8 equal to approximately 20 to 500 nM. For testing Ub-amino-luciferin, final isopeptidase concentrations were as follows: UCHL3 equal to approximately 0.05 to 50 pM; USP2core, USP7, and USP8 equal to approximately 0.5 to 500 pM. Reactions were assembled through addition of 50 μl of diluted enzyme and 50 μl of DUB-Glo™ reaction mixture supplemented with either Z-Arg-Leu-Arg-Gly-Gly (SEQ ID NO: 1)-amino-luciferin (final concentration of 20 μM) or Ub-amino-luciferin (final concentration of 100 nM). The signal in relative luminescence units (RLUs) was measured at 30 minutes from reaction assembly on an Envision multi-label plate reader (Perkin Elmer). The signal to background ratio (S/B) was calculated as (maximum signal−signal in absence of enzyme)/(signal in absence of enzyme).
(§3) The Ub-amino-luciferin (Ub-LUC) substrate was compared to the Ub-AMC substrate (FIG. 3) and the Ub-Rhodamine110 (Ub-Rho) substrate (FIG. 4), to determine the limit of detection for the activities of four different isopeptidases (UCHL3, USP2core, USP7, and USP8). All enzymes were diluted into 50 mM Tris, pH 8.0, 5 mM DTT, 0.05% (w/v) CHAPS. Final isopeptidase concentrations were as follows: UCHL3 equal to approximately 2 pM to 40 pM; USP2core, USP7, and USP8 were equal to approximately 10 to 1000 nM. Either Ub-AMC or Ub-Rhodamine110 (final concentration equal to 250 nM) were diluted into 50 mM Tris, pH 8.0, 5 mM DTT, 0.05% (w/v) CHAPS. Reactions were assembled through the addition of 50 μl diluted isopeptidase to 50 μl of either Ub-AMC or Ub-Rhodamine110, and the signal in relative fluorescence units (RFUs) was measured at 30 minutes on an Envision multi-label plate reader (Perkin Elmer). For Ub-AMC, fluorescence was monitored with filters corresponding to excitation at 340 nm and emission at 460 nm. For Ub-Rhodamine110, fluorescence was monitored with filters corresponding to excitation at 485 nm and emission at 531 nm. The signal to background (S/B) was calculated as (maximum signal−signal in absence of enzyme)/(signal in absence of enzyme).

[1] = system: Otub2, JosD1, JosD2, AMSH, Ataxin3, Ataxin3-like, UCHL5, USP20, and USP14; assay: Substrate comparison on panel of nine isopeptidases; assay type: biochemical
Experimental: For Ub-AMC and Ub-Rhodamine110, all enzymes were diluted into 50 mM Tris, pH 8.0, 5 mM DTT, 0.05% CHAPS to a final concentration of 10 nM. […] Either Ub-AMC or Ub-Rhodamine110 (final reaction concentration equal to 250 nM) were diluted into 50 mM Tris, pH 8.0, 5 mM DTT, 0.05% (w/v) CHAPS. […] For Ub-Rhodamine110, fluorescence was monitored with filters corresponding to excitation at 485 nm and emission at 531 nm.

USP7 = USP7 (Homo sapiens, UniProt Q93009); assay: Isopeptidase cleavage of substrates (DUB-Glo luminescence / fluorescence), S/B; assay type: biochemical; conditions: USP7 0.5 nM
Experimental: as §2, §3

[2] = system: UCHL3, USP2core, USP7, and USP8; assay: Limit of detection for four isopeptidases, Ub-LUC vs Ub-AMC and Ub-Rhodamine110; assay type: biochemical; conditions: the four enzymes
Experimental: The Ub-amino-luciferin substrate was compared to the Z-Arg-Leu-Arg-Gly-Gly (SEQ ID NO: 1)-amino-luciferin substrate (Promega DUB-Glo™ substrate) to determine the limit of detection of the activities of four different isopeptidases (UCHL3, USP2core, USP7, and USP8). For all enzymes, these two substrates were tested in parallel using the DUB-Glo™ assay system (Promega) according to the manufacturer's instructions. All enzymes were diluted into 50 mM HEPES, pH 7.5, 10 mM DTT, 0.1% Prionex (Sigma-Aldrich). […] The signal in relative luminescence units (RLUs) was measured at 30 minutes from reaction assembly on an Envision multi-label plate reader (Perkin Elmer). The signal to background ratio (S/B) was calculated as (maximum signal−signal in absence of enzyme)/(signal in absence of enzyme).
The Ub-amino-luciferin (Ub-LUC) substrate was compared to the Ub-AMC substrate (FIG. 3) and the Ub-Rhodamine110 (Ub-Rho) substrate (FIG. 4), to determine the limit of detection for the activities of four different isopeptidases (UCHL3, USP2core, USP7, and USP8). […] Reactions were assembled through the addition of 50 μl diluted isopeptidase to 50 μl of either Ub-AMC or Ub-Rhodamine110, and the signal in relative fluorescence units (RFUs) was measured at 30 minutes on an Envision multi-label plate reader (Perkin Elmer). […]

Chain of SENP2 (Q9HC62 whole entry, species assumed): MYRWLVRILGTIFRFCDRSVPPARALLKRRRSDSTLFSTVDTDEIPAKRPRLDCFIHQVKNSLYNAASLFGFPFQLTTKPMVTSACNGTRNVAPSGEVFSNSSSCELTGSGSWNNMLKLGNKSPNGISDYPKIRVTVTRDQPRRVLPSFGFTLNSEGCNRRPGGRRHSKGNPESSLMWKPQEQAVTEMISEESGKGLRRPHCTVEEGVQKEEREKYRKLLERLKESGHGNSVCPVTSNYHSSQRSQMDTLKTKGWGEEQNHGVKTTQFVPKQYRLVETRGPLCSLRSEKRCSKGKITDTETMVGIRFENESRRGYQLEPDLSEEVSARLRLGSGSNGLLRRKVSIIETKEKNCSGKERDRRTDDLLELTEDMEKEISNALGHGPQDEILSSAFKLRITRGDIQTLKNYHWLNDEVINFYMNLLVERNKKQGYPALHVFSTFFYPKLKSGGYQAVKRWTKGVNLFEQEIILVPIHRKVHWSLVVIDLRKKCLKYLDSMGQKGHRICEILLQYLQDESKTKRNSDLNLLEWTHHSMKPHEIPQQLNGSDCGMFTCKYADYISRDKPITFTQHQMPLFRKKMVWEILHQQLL
Chain of USP7 (Q93009 whole entry, species assumed): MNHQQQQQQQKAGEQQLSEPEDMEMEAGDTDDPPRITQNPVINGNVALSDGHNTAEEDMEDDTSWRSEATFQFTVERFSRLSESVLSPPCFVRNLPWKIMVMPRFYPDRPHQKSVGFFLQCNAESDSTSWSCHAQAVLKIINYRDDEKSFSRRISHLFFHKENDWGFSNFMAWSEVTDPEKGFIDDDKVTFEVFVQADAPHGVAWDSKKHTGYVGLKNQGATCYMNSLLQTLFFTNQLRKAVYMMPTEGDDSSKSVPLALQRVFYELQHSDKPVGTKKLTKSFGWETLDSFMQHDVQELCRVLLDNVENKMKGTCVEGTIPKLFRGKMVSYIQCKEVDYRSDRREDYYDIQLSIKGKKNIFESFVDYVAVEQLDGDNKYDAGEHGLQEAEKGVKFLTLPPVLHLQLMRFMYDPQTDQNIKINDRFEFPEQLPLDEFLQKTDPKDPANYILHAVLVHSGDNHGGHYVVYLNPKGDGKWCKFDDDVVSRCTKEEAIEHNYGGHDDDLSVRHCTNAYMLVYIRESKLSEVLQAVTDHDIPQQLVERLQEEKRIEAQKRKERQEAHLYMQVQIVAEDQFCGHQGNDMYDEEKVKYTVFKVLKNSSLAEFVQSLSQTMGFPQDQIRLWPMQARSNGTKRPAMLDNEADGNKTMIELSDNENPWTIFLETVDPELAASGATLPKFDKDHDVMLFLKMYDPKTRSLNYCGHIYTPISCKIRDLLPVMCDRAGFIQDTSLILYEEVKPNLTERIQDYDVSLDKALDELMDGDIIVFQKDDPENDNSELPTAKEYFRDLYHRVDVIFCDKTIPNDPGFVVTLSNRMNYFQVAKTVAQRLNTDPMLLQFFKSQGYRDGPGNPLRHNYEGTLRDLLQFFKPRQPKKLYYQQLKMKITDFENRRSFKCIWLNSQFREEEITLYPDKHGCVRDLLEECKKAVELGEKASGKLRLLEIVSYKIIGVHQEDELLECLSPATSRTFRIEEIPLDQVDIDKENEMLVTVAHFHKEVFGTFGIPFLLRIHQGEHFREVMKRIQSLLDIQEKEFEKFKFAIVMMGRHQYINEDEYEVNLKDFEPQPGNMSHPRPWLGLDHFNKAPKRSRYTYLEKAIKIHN
Chain of SENP6 (Q9GZR1 whole entry, species assumed): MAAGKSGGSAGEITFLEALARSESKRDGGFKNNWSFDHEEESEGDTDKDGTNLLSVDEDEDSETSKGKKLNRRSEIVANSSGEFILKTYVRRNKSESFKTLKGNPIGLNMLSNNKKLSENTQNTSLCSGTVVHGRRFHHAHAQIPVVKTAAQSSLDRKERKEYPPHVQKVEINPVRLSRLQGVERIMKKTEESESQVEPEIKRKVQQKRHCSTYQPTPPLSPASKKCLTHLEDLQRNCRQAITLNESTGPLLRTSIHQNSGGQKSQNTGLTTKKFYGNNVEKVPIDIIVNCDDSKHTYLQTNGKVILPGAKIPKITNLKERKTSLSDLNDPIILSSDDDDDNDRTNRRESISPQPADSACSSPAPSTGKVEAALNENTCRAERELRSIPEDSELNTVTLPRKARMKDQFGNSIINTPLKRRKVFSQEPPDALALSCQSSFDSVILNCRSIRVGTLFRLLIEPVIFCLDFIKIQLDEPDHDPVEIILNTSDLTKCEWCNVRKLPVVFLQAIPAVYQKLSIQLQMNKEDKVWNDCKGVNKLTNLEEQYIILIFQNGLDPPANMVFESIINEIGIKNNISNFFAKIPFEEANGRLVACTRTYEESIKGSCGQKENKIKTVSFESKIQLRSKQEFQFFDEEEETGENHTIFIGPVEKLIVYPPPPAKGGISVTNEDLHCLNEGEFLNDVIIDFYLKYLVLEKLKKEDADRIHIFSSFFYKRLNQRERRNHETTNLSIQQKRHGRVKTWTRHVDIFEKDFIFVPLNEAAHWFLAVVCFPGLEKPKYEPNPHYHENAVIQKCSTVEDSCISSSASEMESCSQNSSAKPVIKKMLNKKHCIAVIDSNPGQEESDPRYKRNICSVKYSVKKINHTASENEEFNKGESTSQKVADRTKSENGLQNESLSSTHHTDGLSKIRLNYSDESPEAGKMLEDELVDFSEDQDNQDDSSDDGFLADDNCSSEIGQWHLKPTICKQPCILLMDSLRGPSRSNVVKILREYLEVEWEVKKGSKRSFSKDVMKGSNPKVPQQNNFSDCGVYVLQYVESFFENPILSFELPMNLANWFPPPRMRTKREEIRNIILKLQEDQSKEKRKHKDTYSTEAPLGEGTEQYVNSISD

Substance	signal (RLU, S/B) (SENP6)	signal (RLU, S/B) (SENP2)	signal to background (S/B) ratio (UCHL3; substrate 20 μM, UCHL3 40 nM)	S/B towards Ub-amino-luciferin, fold higher than Ub-AMC / Ub-Rhodamine110 ([1]; equivalent molar concentrations, seven of nine DUBs (exceptions JosD2 and UCHL5))	fold greater S/B compared to Z-RLRGG-amino-luciferin (DUB-Glo reagent) ([1]; range over panel of 9 isopeptidases, 10 nM)	fold greater S/B compared to Z-RLRGG-amino-luciferin (UCHL3; UCHL3 activity)	limits of detection, fold lower than with Z-RLRGG-amino-luciferin (UCHL3; linear range of UCHL3-dependent S/B)	signal to background (S/B) ratio (UCHL3; substrate 100 nM, UCHL3 32 pM)	S/B increase relative to both Ub-AMC and Ub-Rhodamine110 (USP7)	fold greater S/B compared to Ub-rhodamine110 [2]	limit of detection (S/B>3) increased over Ub-rhodamine110 [2]
Z-Arg-Leu-Arg-Gly-Gly (SEQ ID NO: 1)-amino-luciferin [DUB-glo ™]	gave signals	gave signals	approximately 1000								
Ub(1-76)-aminoluciferin [Ub-LUC]				10-1000 fold	10-1000 fold	about 1000 fold	approximately 1000 fold	1000	~100 fold	more than 30 fold	more than 30 fold
